{"source": "patent US20230000813A1", "about": "“COMPOUND FOR THE TREATMENT OF BOVINE OR SWINE RESPIRATORY DISEASE” (Intervet Inc., priority 2016, published 2023)", "assay_type_in_all_cases": "cell-based", "key": {"[1]": {"test_system": "Mannheimia haemolytica MH 13065 (XB0446-6003.9, BRD field isolate)", "assay": "MIC, broth-microdilution (CLSI VET01-A4)", "method_in_brief": "(§1)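 MIC read by eye as lowest compound concentration without visible growth (no turbidity), interpreted per CLSI VET01-S3. Doubling-dilution broth-microdilution trays, run according to CLSI VET01-A4.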"}, "[2]": {"test_system": "Mannheimia haemolytica MH 13093 (XB0472-6014.1, BRD field isolate)", "assay": "MIC, broth-microdilution (CLSI VET01-A4)", "method_in_brief": "as §1"}, "[3]": {"test_system": "15 isolates of H. parasuis", "assay": "MIC50/MIC90, agar-dilution method (GC agar base)", "details": "Haemophilus parasuis", "description": "The in vitro activity of 3 representative compounds of this invention against 15 isolates of H. parasuis was determined. All strains were isolated from the respiratory tract of swine in different European countries The MICs for all isolates were determined by using the agar-dilution method according to CLSI document VET01-A4 [1]with the following modification: GC agar base was used instead of Mueller-Hinton agar base for the preparation of the agar-dilution plates. Results were interpreted according to the CLSI document VET01-S3."}, "[4]": {"test_system": "Mannheimia haemolytica MH 6357 (M7/2, reference strain, cattle infection strain)", "assay": "MIC, broth-microdilution (CLSI VET01-A4)", "method_in_brief": "(§2)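 Read-out is visual: the MIC is the lowest compound concentration at which no turbidity is seen by eye. Trays carried a doubling dilution series, with interpretation following CLSI VET01-S3.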"}, "[5]": {"test_system": "Mannheimia haemolytica MH 10720 (154, BRD field isolate)", "assay": "MIC, broth-microdilution (CLSI VET01-A4)", "method_in_brief": "as §2"}, "[6]": {"test_system": "Pasteurella multocida PM 6267 (P 2225 (L386), reference strain, mouse infection strain)", "assay": "MIC, broth-microdilution (CLSI VET01-A4)", "method_in_brief": "as §2"}, "[7]": {"test_system": "Pasteurella multocida PM 12080 (IV102277-0093, BRD field isolate)", "assay": "MIC, broth-microdilution (CLSI VET01-A4)", "method_in_brief": "as §2"}, "[8]": {"test_system": "Mannheimia haemolytica MH 6374 (ATCC 33396, reference strain)", "assay": "MIC, broth-microdilution (CLSI VET01-A4)", "method_in_brief": "as §2"}, "[9]": {"test_system": "Mannheimia haemolytica MH 12587 (1071, BRD field isolate, macrolide-resistance: erm+, E+)", "assay": "MIC, broth-microdilution (CLSI VET01-A4)", "method_in_brief": "as §2"}, "[10]": {"test_system": "Pasteurella multocida PM 10775 (080130003051, BRD field isolate)", "assay": "MIC, broth-microdilution (CLSI VET01-A4)", "method_in_brief": "as §2"}, "[11]": {"test_system": "Pasteurella multocida PM 6391 (ATCC 43137, reference strain)", "assay": "MIC, broth-microdilution (CLSI VET01-A4)", "details": "strain PM 6391", "method_in_brief": "as §2"}, "[12]": {"test_system": "20 isolates of Bordetella (B.) bronchiseptica", "assay": "MIC50/MIC90, broth-microdilution, European respiratory tract isolates", "description": "(§3) The in vitro activity of compounds against 20 isolates of Actinobacillus (A.) pleuropneumoniae, 20 of Bordetella (B.) bronchiseptica, 20 of Histophilus (H.) somni, 40 of Mannheimia (M.) haemolytica and 40 of Pasteurella (P.) multocida collected in different European countries were determined. All bacteria were isolated from the respiratory tract of swine and cattle suffering from respiratory disease. All isolates were epidemiologically unrelated as specified by the different suppliers.\n(§4) The minimum inhibitory concentrations (MIC) of compounds according to the invention were determined by the broth-microdilution method according to CLSI document VET01-A4.\n(§5) Microdilution trays containing a doubling dilution series of the test compounds were used for the tests.\n(§6) The MIC results were interpreted according to the CLSI documents VET01-S3. The lowest concentration of compound at which no visible growth (i.e. no turbidity) detected by the unaided eye was recorded as the MIC."}, "[13]": {"test_system": "40 isolates of Mannheimia (M.) haemolytica", "assay": "MIC50/MIC90, broth-microdilution, European respiratory tract isolates", "description": "as §3, §4, §5, §6"}, "[14]": {"test_system": "20 isolates of Histophilus (H.) somni", "assay": "MIC50/MIC90, broth-microdilution, European respiratory tract isolates", "description": "as §3, §4, §5, §6"}, "[15]": {"test_system": "40 isolates of Pasteurella (P.) multocida", "assay": "MIC50/MIC90, broth-microdilution, European respiratory tract isolates", "description": "as §3, §4, §5, §6"}, "[16]": {"test_system": "20 isolates of Actinobacillus (A.) pleuropneumoniae", "assay": "MIC50/MIC90, broth-microdilution, European respiratory tract isolates", "description": "as §3, §4, §5, §6"}, "[17]": {"test_system": "Acinetobacter baumanii AB 15919 (IV369-2012, dermatitis field isolate)", "assay": "MIC, broth-microdilution (CLSI VET01-A4)", "details": "strain AB 15919", "description": "(§7) The Minimum inhibitory concentrations (MIC) of compounds according to the invention were determined by the broth-microdilution method according to CLSI document VET01-A4.\n(§8) Microdilution trays containing a doubling dilution series of the test compound were used for the tests.\nas §6"}, "[18]": {"test_system": "Acinetobacter baumanii AB 16496 (ATCC 19606, reference strain)", "assay": "MIC, broth-microdilution (CLSI VET01-A4)", "details": "strain AB 16496", "description": "as §7, §8, §6"}, "[19]": {"test_system": "Staphylococcus aureus SA 5816 (2139, mastitis field isolate)", "assay": "MIC, broth-microdilution (CLSI VET01-A4)", "details": "strain SA 5816", "description": "as §7, §8, §6"}, "[20]": {"test_system": "Staphylococcus aureus SA 6114 (ATCC 29213, reference strain)", "assay": "MIC, broth-microdilution (CLSI VET01-A4)", "details": "strain SA 6114", "description": "as §7, §8, §6"}, "[21]": {"test_system": "Mannheimia haemolytica MH 12180 (KLI-02944, BRD field isolate)", "assay": "MIC, broth-microdilution (CLSI VET01-A4)", "details": "strain MH 12180", "description": "as §7, §8, §6"}, "[22]": {"test_system": "Pasteurella multocida PM 14426 (0006-439, BRD field isolate, macrolide-resistant)", "assay": "MIC, broth-microdilution (CLSI VET01-A4)", "details": "strain PM 14426, macrolide-resistant", "description": "as §7, §8, §6"}}, "note": "Read-outs that look alike come from different tables or passages of the source.", "data": [{"smiles": "CC(C)(N)C(NC(=O)c1ccc(C#Cc2ccc(CNCc3ccncc3)cc2)cc1)C(=O)NO", "note": "(centres unmarked) [C. 320]", "values": [{"measurement": "MIC", "setting": "[1]", "value": 0.8, "unit": "µM"}, {"measurement": "MIC", "setting": "[2]", "value": 1.6, "unit": "µM"}, {"measurement": "MIC50", "setting": "[3]", "value": 2, "unit": "µg/mL"}, {"measurement": "MIC90", "setting": "[3]", "value": 4, "unit": "µg/mL"}, {"measurement": "MIC", "setting": "[4]; Mannheimia haemolytica MH 6357, read-out: MIC MH 6357", "value": 0.8, "unit": "µM"}, {"measurement": "MIC", "setting": "[4]; strain MH 6357", "value": 0.5, "unit": "µg/mL"}, {"measurement": "MIC", "setting": "[5]; Mannheimia haemolytica MH 10720, read-out: MIC MH 10720", "value": 0.4, "unit": "µM"}, {"measurement": "MIC", "setting": "[5]; strain MH 10720", "value": 0.25, "unit": "µg/mL"}, {"measurement": "MIC PM 6267", "setting": "[6]; Pasteurella multocida PM 6267", "value": "<=0.1 μM"}, {"measurement": "MIC", "setting": "[6]; strain PM 6267", "value": "≤0.016", "unit": "µg/mL"}, {"measurement": "MIC PM 12080", "setting": "[7]; Pasteurella multocida PM 12080", "value": "<=0.1 μM"}, {"measurement": "MIC", "setting": "[7]; strain PM 12080", "value": "≤0.016", "unit": "µg/mL"}, {"measurement": "MIC", "setting": "[8]; Mannheimia haemolytica MH 6374, read-out: MIC MH 6374", "value": 0.8, "unit": "µM"}, {"measurement": "MIC", "setting": "[8]; strain MH 6374", "value": 0.25, "unit": "µg/mL"}, {"measurement": "MIC MH 12587", "setting": "[9]; Mannheimia haemolytica MH 12587, macrolide-resistant", "value": 1.6, "unit": "µM"}, {"measurement": "MIC", "setting": "[9]; strain MH 12587, macrolide-resistant", "value": 0.5, "unit": "µg/mL"}, {"measurement": "MIC PM 10775", "setting": "[10]; Pasteurella multocida PM 10775", "value": "<=0.1 μM"}, {"measurement": "MIC", "setting": "[10]; strain PM 10775", "value": "≤0.016", "unit": "µg/mL"}, {"measurement": "MIC", "setting": "[11]", "value": 0.032, "unit": "µg/mL"}, {"measurement": "MIC50", "setting": "[12]", "value": 2, "unit": "µg/mL"}, {"measurement": "MIC90", "setting": "[12]", "value": 2, "unit": "µg/mL"}, {"measurement": "MIC50", "setting": "[13]", "value": 0.5, "unit": "µg/mL"}, {"measurement": "MIC90", "setting": "[13]", "value": 0.5, "unit": "µg/mL"}, {"measurement": "MIC50", "setting": "[14]", "value": 0.063, "unit": "µg/mL"}, {"measurement": "MIC90", "setting": "[14]", "value": 0.125, "unit": "µg/mL"}, {"measurement": "MIC50", "setting": "[15]", "value": "≤0.016", "unit": "µg/mL"}, {"measurement": "MIC90", "setting": "[15]", "value": 0.032, "unit": "µg/mL"}, {"measurement": "MIC50", "setting": "[16]", "value": 0.5, "unit": "µg/mL"}, {"measurement": "MIC90", "setting": "[16]", "value": 0.5, "unit": "µg/mL"}, {"measurement": "MIC", "setting": "[17]", "value": 16, "unit": "µg/mL"}, {"measurement": "MIC", "setting": "[18]", "value": ">16", "unit": "µg/mL"}, {"measurement": "MIC", "setting": "[19]", "value": ">16", "unit": "µg/mL"}, {"measurement": "MIC", "setting": "[20]", "value": ">16", "unit": "µg/mL"}, {"measurement": "MIC", "setting": "[21]", "value": 0.5, "unit": "µg/mL"}, {"measurement": "MIC", "setting": "[22]", "value": "≤0.016", "unit": "µg/mL"}]}]}
